Read-outs that look alike come from different tables or passages of the source.
Tests used:
FXIIIa = target: T1, FXIIIa (Homo sapiens, UniProt P00488); assay: Fibrinogen clotting assay, FXIIIa (gamma-gamma bands scanned); assay type: biochemical; settings: read-out: % FXIIIa Inhibition
T1 sequence (P00488 39-732 limits assumed): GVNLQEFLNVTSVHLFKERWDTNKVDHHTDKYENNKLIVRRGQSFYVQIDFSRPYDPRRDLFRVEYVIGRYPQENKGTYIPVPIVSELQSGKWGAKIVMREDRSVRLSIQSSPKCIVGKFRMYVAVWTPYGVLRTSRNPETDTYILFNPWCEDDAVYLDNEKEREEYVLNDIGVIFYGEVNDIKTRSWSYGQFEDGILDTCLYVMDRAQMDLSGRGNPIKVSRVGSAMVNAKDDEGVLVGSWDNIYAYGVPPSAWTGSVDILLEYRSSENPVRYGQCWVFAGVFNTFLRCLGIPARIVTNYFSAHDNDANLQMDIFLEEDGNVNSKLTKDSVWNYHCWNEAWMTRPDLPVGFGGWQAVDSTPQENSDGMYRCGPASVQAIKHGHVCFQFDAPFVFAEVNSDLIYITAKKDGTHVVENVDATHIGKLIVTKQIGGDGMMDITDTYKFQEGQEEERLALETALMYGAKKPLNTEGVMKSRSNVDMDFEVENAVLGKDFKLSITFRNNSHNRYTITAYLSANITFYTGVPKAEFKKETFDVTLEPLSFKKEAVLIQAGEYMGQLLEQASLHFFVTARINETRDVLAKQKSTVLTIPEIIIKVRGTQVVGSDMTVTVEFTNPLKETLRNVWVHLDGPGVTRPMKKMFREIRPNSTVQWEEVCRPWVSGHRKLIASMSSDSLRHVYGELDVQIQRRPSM
Method: (§1) Clots were formed in 1.5 ml Eppendorf tubes by adding reagents to give the following final assay concentrations in a total volume of 100 μl: 2 mg/ml FXIII-free fibrinogen purified on a rabbit anti-FXIII column (Enzyme Research Labs); 20 mM CaCl2; 1 unit/ml thrombin (bovine, Enzyme Research Labs); and either 1 μg/ml FXIIIa (recombinant human FXIIIa2 (ZymoGenetics)) or 20 μg/ml tTG (Sigma) in 120 mM NaCl plus 25 mM Tris at about pH 7.2. In addition, 10 μl of one of the following was added to each tube in varying concentrations to determine a dose response: iodoacetamide, ZG-1400a or cerulenin. The final reaction volume in each Eppendorf tube was adjusted to 100 μl with 120 mMNaCl plus 25 mM Tris at about pH 7.2.
(§2) A positive (complete cross-linking) control contained fibrinogen, enzyme (FXIIIa or tTG), calcium, and thrombin at final assay concentrations listed above, and was tested in the absence of any inhibitor. A negative (no cross-linking) control contained a solution of FXIII-free fibrinogen, thrombin and 20 μM EDTA [(ethylene dinitrilo)tetraacetic acid, disodium salt, dihydrate (J. T. Baker, Phillipsburg, N.J.)] in the absence of calcium and enzyme. Both positive and negative controls contained a final DMSO concentration of 1%. The FXIIIa-treated clots and their controls were incubated for about 10 min at about 37° C., while the tTG-treated clots and their controls were incubated for about 4 h at about 37° C. After incubation, all of the clots and controls were frozen to quench reactions.
(§3) Frozen clots and controls were boiled for about 3 min, centrifuged at 14,000 RPM for 5 min, and then the supernatant was removed. The clots were resuspended in 100 μl lysis buffer and incubated overnight at 37° C. The lysis buffer Contained 10M urea, 10 mM EDTA, 1% sodium dodecyl sulfate ("SDS"), and 1% 2-mercaptoethanol. After incubation, approximately 5 μl of each sample was brought to a final volume of 20 μl with a reducing sample buffer (containing 125 mM Tris, pH 6.8, 20% glycerol, 4% SDS, 10% 2-mercaptoethanol, and 0.025% bromophenol blue), and applied to 4-15% gradient gels (Integrated Separation Systems, Natick, Mass.) for polyacrylamide electrophoresis (PAGE) at 200 volts for approximately 1 h or until the tracking dye reached the bottom of the gel.
(§4) After staining with Coomassie blue, the alpha, beta, and gamma chains of fibrin were visualized as bands on the gel. The presence of FXIIIa-catalyzed fibrin cross-linking was observed by the appearance of a gamma-gamma dimer, and the disappearance of the monomeric gamma band from the gels. The tTG cross-linking occurs by formation of alpha chain polymers and alpha2 -gamma oligomers. Since there are many bands, they are difficult to visualize. A better indication of tTG cross-linking was the disappearance of the monomeric alpha band from the gels. In addition, the gamma band was reduced, but to a lesser degree than in FXIIIa cross-linked clots.
(§5) The gels were also scanned on a densitometer (Bio Image Whole Band Analyzer, Millipore Corp., Bedford, Mass.). The relative intensity of gamma-gamma bands were scanned and compared for FXIIIa inhibition, while alpha bands were scanned and compared for tTG inhibition. No cross-linkingwas detected in the negative controls containing only FXIII-free fibrinogen thrombin and DMSO. […] The inhibition results obtained from PAGE of samples prepared as described above, and containing ZG-1400a at 100 μM and 10 μM, or cerulenin or iodoacetamide at 1 mM, 100 μM, and 10 μM, are shown in Table 2.

tTG = target: T2, tTG (Cavia cutleri, UniProt P08587); assay: Fibrinogen clotting assay, tTG (alpha bands scanned); assay type: biochemical; settings: read-out: % tTG Inhibition
T2 construct: purchased Sigma
T2 sequence (P08587 1-690): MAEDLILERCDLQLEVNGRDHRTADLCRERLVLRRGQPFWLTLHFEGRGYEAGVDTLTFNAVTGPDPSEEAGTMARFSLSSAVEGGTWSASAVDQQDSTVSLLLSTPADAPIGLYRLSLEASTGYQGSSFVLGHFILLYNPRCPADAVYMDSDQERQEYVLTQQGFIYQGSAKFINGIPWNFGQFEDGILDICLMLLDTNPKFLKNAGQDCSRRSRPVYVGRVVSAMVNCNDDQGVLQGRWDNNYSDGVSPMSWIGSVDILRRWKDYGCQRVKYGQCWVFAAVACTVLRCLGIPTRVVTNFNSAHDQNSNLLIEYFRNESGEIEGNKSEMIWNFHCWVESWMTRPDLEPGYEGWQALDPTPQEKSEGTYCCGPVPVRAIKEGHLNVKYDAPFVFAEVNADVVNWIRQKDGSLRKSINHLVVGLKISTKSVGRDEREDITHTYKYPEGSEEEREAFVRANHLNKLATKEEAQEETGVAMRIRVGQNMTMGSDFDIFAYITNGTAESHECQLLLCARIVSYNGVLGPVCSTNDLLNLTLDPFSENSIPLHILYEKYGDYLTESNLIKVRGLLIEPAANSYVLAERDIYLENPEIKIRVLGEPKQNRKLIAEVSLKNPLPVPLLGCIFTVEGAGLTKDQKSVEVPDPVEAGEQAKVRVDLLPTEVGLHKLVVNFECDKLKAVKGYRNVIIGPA
Method: as §1, §2, §3, §4, §5

[1] = 10 μM, gamma-gamma bands, densitometer
[2] = 100 μM, gamma-gamma bands, densitometer
[3] = 10 μM, alpha bands, densitometer
[4] = 100 μM, alpha bands, densitometer

Structure (SMILES) | inhibition at 10 µM (FXIIIa; [1]) | inhibition at 100 µM (FXIIIa; [2]) | inhibition at 1000 µM (FXIIIa; 1 mM, gamma-gamma bands, densitometer) | inhibition at 10 µM (tTG; [3]) | inhibition at 100 µM (tTG; [4]) | inhibition at 1000 µM (tTG; 1 mM, alpha bands, densitometer) | inhibition at 10 µM (FXIIIa) | inhibition at 100 µM (FXIIIa) | inhibition at 1000 µM (FXIIIa) | inhibition at 10 µM (tTG) | inhibition at 100 µM (tTG) | inhibition at 1000 µM (tTG)
CC=CCC=CCCC(=O)C1OC1C(N)=O (stereo not shown) [Cerulenin, 2,3-epoxy-4-oxo-7,10-dodecadienamide] | 8% | 38% | 100% | 30% | 79% | 94% |  |  |  |  |  | 
C[C@@H]1CCC/C=C\C(=O)Cc2cc(O)cc(O)c2C(=O)O1 [ZG-1400, R(-) enantiomer of cis-resorcylide] | 66% | 100% |  | 80% | 83% |  |  |  |  |  |  | 
NC(=O)CI [Iodoacetamide, iodoacetamide] |  |  |  |  |  |  | 66% | 100% | 100% | 72% | 68% | 60%
